Patent US12371428B2 (Exelixis, Inc., priority 2019, dated 2025)
Like-named read-outs stand apart in the source and are kept apart here.

Legend:
Type in all cases: cell-based
[1] = target: AXL (phospho-AXL, Gas6-stimulated A-172 glioblastoma cells) (Homo sapiens (Human), UniProt P30530); assay: AXL autophosphorylation ELISA in A-172 cells (Example E)
How it was run: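 Phospho-AXL was measured by ELISA in lysates of Gas6-stimulated A-172 cells, starved 24 h in serum-free medium and exposed 1 h to an 8-point compound dilution at 0.3% DMSO.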

[2] = target: Met (phospho-Met, HGF-stimulated PC-3 prostate cancer cells) (Homo sapiens (Human), UniProt P08581); assay: Met autophosphorylation ELISA in PC-3 cells (Example F); settings: cellular activity, read-out: c-Met IC50
How it was run: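 PC-3 cells, serum-starved 3 h, were treated with compounds (8-point dose curve, 0.3% DMSO final) for 1 h, then stimulated with 100 ng/mL recombinant human HGF for 10 min. Lysate phospho-Met (panTyr) was quantified by sandwich ELISA; IC50 from 4-parameter logistic fit.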

[3] = target: KDR (phospho-KDR, VEGF165-stimulated HUVEC cells) (Homo sapiens (Human), UniProt P35968); assay: KDR autophosphorylation ELISA in HUVEC cells (Example G); settings: cellular activity
How it was run: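 Inhibition of VEGF165-driven KDR autophosphorylation is measured in primary human umbilical vein endothelial cells after 24 h serum deprivation. Compound preincubation lasts 1 h before a 5-minute challenge with 100 ng/mL ligand, and phosphorylated receptor is then measured by ELISA in the lysates.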

[4] = target: Mer (phospho-Mer, MERTK-transfected 293A cells) (Homo sapiens (Human), UniProt Q12866); assay: Mer autophosphorylation ELISA in transient transfected 293A cells (Example H); settings: cellular activity
How it was run: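 IC50 from 4-parameter logistic fit of phospho-Mer levels, quantified by ELISA against a phospho-Mer standard in lysates of MERTK-transfected 293A cells. Cells exposed 1 h to 8-point serial dilutions, serum-free, 0.3% DMSO; controls: DMSO (100%) and reference inhibitor (0%).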

[5] = cellular activity, AXL autophosphorylation ELISA in A-172 cells, read-out: Axl IC50
[6] = Met autophosphorylation ELISA in PC-3 cells
[7] = KDR autophosphorylation ELISA in HUVEC cells
[8] = Mer autophosphorylation ELISA in transient transfected 293A cells

Sequence of KDR (phospho-KDR, VEGF165-stimulated HUVEC cells) (P35968 20-1356): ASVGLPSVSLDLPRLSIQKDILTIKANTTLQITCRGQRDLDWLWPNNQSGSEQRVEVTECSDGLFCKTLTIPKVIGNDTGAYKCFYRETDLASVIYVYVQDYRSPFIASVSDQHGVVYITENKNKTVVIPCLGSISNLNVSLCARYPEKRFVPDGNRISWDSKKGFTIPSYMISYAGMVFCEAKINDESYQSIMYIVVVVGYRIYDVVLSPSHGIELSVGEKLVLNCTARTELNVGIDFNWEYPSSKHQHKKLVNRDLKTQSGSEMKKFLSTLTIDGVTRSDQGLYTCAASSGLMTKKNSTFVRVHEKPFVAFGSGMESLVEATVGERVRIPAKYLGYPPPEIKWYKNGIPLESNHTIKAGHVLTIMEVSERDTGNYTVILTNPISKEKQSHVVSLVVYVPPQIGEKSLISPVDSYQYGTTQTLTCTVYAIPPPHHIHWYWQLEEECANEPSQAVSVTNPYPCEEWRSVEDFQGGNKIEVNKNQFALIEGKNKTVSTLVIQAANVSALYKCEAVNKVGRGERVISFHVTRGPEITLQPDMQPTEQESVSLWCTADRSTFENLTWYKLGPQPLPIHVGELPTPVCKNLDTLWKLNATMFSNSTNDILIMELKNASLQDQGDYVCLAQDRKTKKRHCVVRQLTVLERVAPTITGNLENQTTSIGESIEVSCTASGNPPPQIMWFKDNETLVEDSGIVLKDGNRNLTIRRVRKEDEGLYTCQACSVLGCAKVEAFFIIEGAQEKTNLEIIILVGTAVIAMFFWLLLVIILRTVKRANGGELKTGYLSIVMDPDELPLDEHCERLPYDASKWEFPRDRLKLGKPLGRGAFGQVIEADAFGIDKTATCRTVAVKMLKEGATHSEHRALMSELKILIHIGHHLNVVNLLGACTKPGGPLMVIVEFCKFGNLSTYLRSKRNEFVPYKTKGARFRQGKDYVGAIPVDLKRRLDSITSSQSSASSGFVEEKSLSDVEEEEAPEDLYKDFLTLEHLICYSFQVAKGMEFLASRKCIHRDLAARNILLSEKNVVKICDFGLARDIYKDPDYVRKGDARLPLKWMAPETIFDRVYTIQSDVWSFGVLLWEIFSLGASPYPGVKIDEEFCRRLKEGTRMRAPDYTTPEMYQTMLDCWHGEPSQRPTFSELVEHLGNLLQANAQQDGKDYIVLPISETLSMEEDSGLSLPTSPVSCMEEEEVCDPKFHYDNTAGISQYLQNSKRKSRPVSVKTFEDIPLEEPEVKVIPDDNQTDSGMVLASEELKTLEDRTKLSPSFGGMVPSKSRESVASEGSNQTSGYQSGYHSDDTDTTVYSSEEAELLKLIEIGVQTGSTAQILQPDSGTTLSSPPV
Sequence of Mer (phospho-Mer, MERTK-transfected 293A cells) (Q12866 21-999): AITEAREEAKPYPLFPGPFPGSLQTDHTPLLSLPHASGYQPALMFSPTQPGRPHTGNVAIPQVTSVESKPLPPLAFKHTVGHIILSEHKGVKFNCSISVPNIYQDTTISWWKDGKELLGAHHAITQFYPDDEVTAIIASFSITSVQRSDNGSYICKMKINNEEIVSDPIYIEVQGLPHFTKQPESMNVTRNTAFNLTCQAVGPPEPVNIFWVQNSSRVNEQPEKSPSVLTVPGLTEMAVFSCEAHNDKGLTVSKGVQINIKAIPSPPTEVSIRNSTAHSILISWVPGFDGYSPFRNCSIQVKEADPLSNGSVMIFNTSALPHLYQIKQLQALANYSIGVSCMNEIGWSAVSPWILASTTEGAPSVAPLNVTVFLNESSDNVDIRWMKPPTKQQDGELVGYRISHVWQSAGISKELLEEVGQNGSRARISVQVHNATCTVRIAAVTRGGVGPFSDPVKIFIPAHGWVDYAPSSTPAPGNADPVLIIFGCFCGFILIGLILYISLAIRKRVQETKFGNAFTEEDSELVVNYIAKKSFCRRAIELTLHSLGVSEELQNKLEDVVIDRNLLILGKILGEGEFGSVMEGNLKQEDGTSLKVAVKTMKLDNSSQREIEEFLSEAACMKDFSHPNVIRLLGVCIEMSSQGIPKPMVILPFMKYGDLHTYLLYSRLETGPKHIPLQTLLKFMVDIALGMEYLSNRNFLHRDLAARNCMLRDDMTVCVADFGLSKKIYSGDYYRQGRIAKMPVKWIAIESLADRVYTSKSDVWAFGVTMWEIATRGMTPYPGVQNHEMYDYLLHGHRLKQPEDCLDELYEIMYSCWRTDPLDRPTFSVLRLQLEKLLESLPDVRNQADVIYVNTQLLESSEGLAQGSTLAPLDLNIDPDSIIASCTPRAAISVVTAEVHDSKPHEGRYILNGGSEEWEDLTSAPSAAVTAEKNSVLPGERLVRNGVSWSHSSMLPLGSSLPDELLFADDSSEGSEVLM
Sequence of AXL (phospho-AXL, Gas6-stimulated A-172 glioblastoma cells) (P30530 26-894): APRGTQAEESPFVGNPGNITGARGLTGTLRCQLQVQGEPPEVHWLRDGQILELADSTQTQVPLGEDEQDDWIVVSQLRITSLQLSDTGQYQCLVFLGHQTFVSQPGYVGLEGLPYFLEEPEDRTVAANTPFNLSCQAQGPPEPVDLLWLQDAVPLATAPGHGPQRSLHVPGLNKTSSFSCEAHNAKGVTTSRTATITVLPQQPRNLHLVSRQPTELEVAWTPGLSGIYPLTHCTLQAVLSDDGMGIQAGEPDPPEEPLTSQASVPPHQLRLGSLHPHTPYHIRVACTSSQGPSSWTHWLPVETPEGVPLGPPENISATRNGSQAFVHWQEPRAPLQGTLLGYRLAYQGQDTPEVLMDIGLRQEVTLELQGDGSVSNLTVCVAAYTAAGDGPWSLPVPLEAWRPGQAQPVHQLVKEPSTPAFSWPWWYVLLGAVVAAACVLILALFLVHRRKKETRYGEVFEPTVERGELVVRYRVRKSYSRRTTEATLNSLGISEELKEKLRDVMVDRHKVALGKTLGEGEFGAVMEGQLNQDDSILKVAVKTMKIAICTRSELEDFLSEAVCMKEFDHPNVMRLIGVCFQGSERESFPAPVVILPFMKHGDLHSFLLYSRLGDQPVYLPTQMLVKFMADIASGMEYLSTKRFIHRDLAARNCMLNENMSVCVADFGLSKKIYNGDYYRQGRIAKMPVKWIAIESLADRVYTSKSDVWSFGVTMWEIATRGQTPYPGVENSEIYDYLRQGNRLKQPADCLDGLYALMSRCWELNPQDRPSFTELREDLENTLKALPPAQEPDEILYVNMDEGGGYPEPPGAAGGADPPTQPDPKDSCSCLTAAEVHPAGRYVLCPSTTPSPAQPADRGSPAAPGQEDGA
Sequence of Met (phospho-Met, HGF-stimulated PC-3 prostate cancer cells) (P08581 25-1390): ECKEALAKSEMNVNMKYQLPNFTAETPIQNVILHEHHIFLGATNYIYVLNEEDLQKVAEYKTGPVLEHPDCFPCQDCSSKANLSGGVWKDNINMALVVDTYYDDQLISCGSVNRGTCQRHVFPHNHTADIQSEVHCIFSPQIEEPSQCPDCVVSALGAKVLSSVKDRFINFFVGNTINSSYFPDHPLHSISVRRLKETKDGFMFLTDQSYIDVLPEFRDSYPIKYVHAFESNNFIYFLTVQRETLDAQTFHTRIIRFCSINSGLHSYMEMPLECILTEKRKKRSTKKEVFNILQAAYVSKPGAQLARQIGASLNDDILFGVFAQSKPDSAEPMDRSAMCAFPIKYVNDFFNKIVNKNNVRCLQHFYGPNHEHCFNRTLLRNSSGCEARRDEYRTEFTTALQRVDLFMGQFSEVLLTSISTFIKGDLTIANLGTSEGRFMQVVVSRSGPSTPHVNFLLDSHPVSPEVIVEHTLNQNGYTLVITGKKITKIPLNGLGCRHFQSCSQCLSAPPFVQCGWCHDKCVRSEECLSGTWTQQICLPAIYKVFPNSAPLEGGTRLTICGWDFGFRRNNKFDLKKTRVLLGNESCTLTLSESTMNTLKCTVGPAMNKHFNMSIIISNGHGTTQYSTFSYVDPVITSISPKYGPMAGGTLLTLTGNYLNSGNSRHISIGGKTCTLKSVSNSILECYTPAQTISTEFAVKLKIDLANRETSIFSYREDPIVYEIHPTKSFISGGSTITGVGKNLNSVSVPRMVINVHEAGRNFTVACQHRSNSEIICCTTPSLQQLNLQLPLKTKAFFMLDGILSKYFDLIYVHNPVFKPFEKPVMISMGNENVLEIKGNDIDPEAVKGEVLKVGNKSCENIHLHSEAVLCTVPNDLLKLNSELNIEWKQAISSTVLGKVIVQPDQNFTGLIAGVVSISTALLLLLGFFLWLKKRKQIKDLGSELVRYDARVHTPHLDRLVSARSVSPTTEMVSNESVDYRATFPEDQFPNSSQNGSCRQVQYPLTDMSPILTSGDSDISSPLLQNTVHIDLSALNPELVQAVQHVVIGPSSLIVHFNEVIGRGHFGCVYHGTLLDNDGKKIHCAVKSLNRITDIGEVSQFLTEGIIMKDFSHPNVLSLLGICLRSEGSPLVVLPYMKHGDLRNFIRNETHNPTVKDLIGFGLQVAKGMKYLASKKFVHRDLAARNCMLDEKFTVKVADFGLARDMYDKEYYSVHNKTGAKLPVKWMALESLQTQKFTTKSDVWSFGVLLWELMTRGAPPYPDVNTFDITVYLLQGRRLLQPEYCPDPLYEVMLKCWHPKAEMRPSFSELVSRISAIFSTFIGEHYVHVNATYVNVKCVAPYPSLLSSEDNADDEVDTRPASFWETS

Row | IC50 [1, 5] | IC50 [2, 6] | IC50 [3, 7] | IC50 [4, 8] | IC50 ([1]; cellular activity, A-172 cells, read-out: Axl IC50) | IC50 ([2]; PC-3 cells) | IC50 ([3]; HUVEC cells) | IC50 ([4]; transfected 293A cells) | Structure (SMILES) | IC50 [1]
1 | < 100 nM | < 100 nM | > 300 nM | < 100 nM | – | – | – | – | Cc1ncc(C(=O)Nc2ccc(Oc3ccnc4cnc(Cl)cc34)c(F)c2)c(=O)n1-c1ccc(F)cc1 [Compound 497, N-[4-[(6-chloro-1,7-naphthyridin-4-yl)oxy]-3-fluorophenyl]-1-(4-fluorophenyl)-2-methyl-6-oxopyrimidine-5-carboxamide] | –
2 | > 300 nM | < 100 nM | < 100 nM | < 100 nM | – | – | – | – | COc1ccc(-c2c(C)nc(C)c(C(=O)Nc3ccc(Oc4ccnc5cc(OC)cnc45)c(F)c3)c2O)c(OC)c1 [Compound 695, 5-(2,4-dimethoxyphenyl)-N-[3-fluoro-4-[(7-methoxy-1,5-naphthyridin-4-yl)oxy]phenyl]-4-hydroxy-2,6-dimethylpyridine-3-carboxamide] | –
3 | < 100 nM | < 100 nM | 100 to 300 nM | < 100 nM | – | – | – | – | CCOc1c(C(=O)Nc2ccc(Oc3ccnc4cc(OC)c(OC)nc34)c(F)c2)cnc(C)c1-c1ccc(F)cc1 [Compound 333, N-[4-[(6,7-dimethoxy-1,5-naphthyridin-4-yl)oxy]-3-fluorophenyl]-4-ethoxy-5-(4-fluorophenyl)-6-methylpyridine-3-carboxamide] | –
4 | < 100 nM | < 100 nM | > 300 nM | < 100 nM | – | – | – | – | COc1cc2nccc(Oc3ccc(NC(=O)c4c(C)c(C)nn(-c5ccc(F)cc5)c4=O)cc3)c2nc1OC [Compound 732, N-[4-[(6,7-dimethoxy-1,5-naphthyridin-4-yl)oxy]phenyl]-2-(4-fluorophenyl)-5,6-dimethyl-3-oxopyridazine-4-carboxamide] | –
5 | < 100 nM | < 100 nM | < 100 nM | < 100 nM | – | – | – | – | C=C(C)c1cnc2c(Oc3ccc(NC(=O)c4cnc(C)n(-c5ccc(F)cc5)c4=O)cc3)ccnc2c1 [Compound 462, 1-(4-fluorophenyl)-2-methyl-6-oxo-N-[4-[(7-prop-1-en-2-yl-1,5-naphthyridin-4-yl)oxy]phenyl]pyrimidine-5-carboxamide] | –
6 | < 100 nM | < 100 nM | < 100 nM | < 100 nM | – | – | – | – | COc1cc2nccc(Oc3ccc(NC(=O)c4c(C)c(C)cn(-c5ccc(F)cc5)c4=O)cc3)c2nc1OC [Compound 680, N-[4-[(6,7-dimethoxy-1,5-naphthyridin-4-yl)oxy]phenyl]-1-(4-fluorophenyl)-4,5-dimethyl-2-oxopyridine-3-carboxamide] | –
7 | < 100 nM | < 100 nM | < 100 nM | < 100 nM | – | – | – | – | CCn1nc(C(=O)Nc2ccc(Oc3ccnc4cc(OC)c(OC)cc34)c(F)c2)c(=O)c(-c2ccc(F)cc2)c1C [Compound 573, N-[4-(6,7-Dimethoxyquinolin-4-yl)oxy-3-fluorophenyl]-1-ethyl-5-(4-fluorophenyl)-6-methyl-4-oxopyridazine-3-carboxamide] | –
8 | < 100 nM | < 100 nM | < 100 nM | < 100 nM | – | – | – | – | C=C(C)c1cnc2c(Oc3ccc(NC(=O)c4c(C)nc(C)n(-c5ccc(F)cc5)c4=O)cc3)ccnc2c1 [Compound 467, 1-(4-fluorophenyl)-2,4-dimethyl-6-oxo-N-[4-[(7-prop-1-en-2-yl-1,5-naphthyridin-4-yl)oxy]phenyl]pyrimidine-5-carboxamide] | –
9 | < 100 nM | < 100 nM | < 100 nM | < 100 nM | – | – | – | – | COc1cc2nccc(Oc3ccc(NC(=O)c4c[nH]c(=S)n(-c5ccc(F)cc5)c4=O)cc3F)c2cc1OC [Compound 646, N-[4-(6,7-dimethoxyquinolin-4-yl)oxy-3-fluorophenyl]-3-(4-fluorophenyl)-4-oxo-2-sulfanylidene-1H-pyrimidine-5-carboxamide] | –
10 | – | – | – | – | < 100 nM | < 100 nM | > 300 nM | < 100 nM | COc1cc2nccc(Oc3ccc(NC(=O)c4c(C)n(CC(F)F)cc(-c5ccc(F)c(C)c5)c4=O)cc3F)c2nc1OC [Compound 812, 1-(2,2-difluoroethyl)-N-[4-[(6,7-dimethoxy-1,5-naphthyridin-4-yl)oxy]-3-fluorophenyl]-5-(4-fluoro-3-methylphenyl)-2-methyl-4-oxopyridine-3-carboxamide] | –

More lines, now with the values behind:

Row | Structure (SMILES) | IC50 [1, 5] | IC50 [2, 6] | IC50 [3, 7] | IC50 [4, 8] | IC50 ([1]; cellular activity, A-172 cells, read-out: Axl IC50) | IC50 ([2]; PC-3 cells) | IC50 ([3]; HUVEC cells) | IC50 ([4]; transfected 293A cells) | IC50 [1]
11 | COc1ccc(-c2c(C)ncc(C(=O)Nc3ccc(Oc4ccnc5cc(OC)cnc45)c(F)c3)c2O)c(F)c1 [Compound 700, N-[3-fluoro-4-[(7-methoxy-1,5-naphthyridin-4-yl)oxy]phenyl]-5-(2-fluoro-4-methoxyphenyl)-4-hydroxy-6-methylpyridine-3-carboxamide] | > 300 nM | < 100 nM | < 100 nM | < 100 nM | – | – | – | – | –
12 | COCc1nc(C)c(-c2ccc(F)cc2)c(O)c1C(=O)Nc1ccc(Oc2ccnc3cnc(Cl)cc23)c(F)c1 [Compound 502, N-[4-[(6-Chloro-1,7-naphthyridin-4-yl)oxy]-3-fluorophenyl]-5-(4-fluorophenyl)-4-hydroxy-2-(methoxymethyl)-6-methylpyridine-3-carboxamide] | < 100 nM | < 100 nM | < 100 nM | < 100 nM | – | – | – | – | –
13 | CNC(=O)c1cc2nccc(Oc3cc(F)c(NC(=O)c4ccc(C)n(-c5ccc(F)cc5)c4=O)cc3F)c2cc1C [Compound 726, 4-[2,5-difluoro-4-[[1-(4-fluorophenyl)-6-methyl-2-oxopyridine-3-carbonyl]amino]phenoxy]-N,6-dimethylquinoline-7-carboxamide] | < 100 nM | < 100 nM | < 100 nM | < 100 nM | – | – | – | – | –
14 | COc1cc2nccc(Oc3ccc(NC(=O)c4nnc(C)c(-c5ccc(F)cc5)c4Cl)cc3F)c2nc1OC [Compound 488, 4-chloro-N-[4-[(6,7-dimethoxy-1,5-naphthyridin-4-yl)oxy]-3-fluorophenyl]-5-(4-fluorophenyl)-6-methylpyridazine-3-carboxamide] | 100 to 300 nM | > 300 nM | > 300 nM | < 100 nM | – | – | – | – | –
15 | COc1cc2nccc(Oc3ccc(NC(=O)c4c5c(cn(-c6ccc(F)cc6)c4=O)C(=O)CCC5)cc3)c2nc1OC [Compound 360, N-[4-[(6,7-dimethoxy-1,5-naphthyridin-4-yl)oxy]phenyl]-2-(4-fluorophenyl)-3,8-dioxo-6,7-dihydro-5H-isoquinoline-4-carboxamide] | < 100 nM | 100 to 300 nM | > 300 nM | < 100 nM | – | – | – | – | –
16 | CNc1nccc2c(Oc3ccc(NC(=O)c4cnc(C)c(-c5ccc(F)cc5)c4O)cc3)ccnc12 [Compound 387, 5-(4-fluorophenyl)-4-hydroxy-6-methyl-N-[4-[[8-(methylamino)-1,7-naphthyridin-4-yl]oxy]phenyl]pyridine-3-carboxamide] | < 100 nM | < 100 nM | < 100 nM | < 100 nM | – | – | – | – | –
17 | COc1cnc2c(Oc3ccc(NC(=O)c4cnc(C)c(-c5ccc(F)c(C)c5)c4O)cc3F)ccnc2c1 [Compound 701, N-[3-fluoro-4-[(7-methoxy-1,5-naphthyridin-4-yl)oxy]phenyl]-5-(4-fluoro-3-methylphenyl)-4-hydroxy-6-methylpyridine-3-carboxamide] | < 100 nM | < 100 nM | < 100 nM | < 100 nM | – | – | – | – | –
18 | COc1cc2nccc(Oc3ccc(NC(=O)c4c(C)c(Br)c(C)n(-c5ccccc5)c4=O)cc3F)c2nc1OC [Compound 747, 5-bromo-N-[4-[(6,7-dimethoxy-1,5-naphthyridin-4-yl)oxy]-3-fluorophenyl]-4,6-dimethyl-2-oxo-1-phenylpyridine-3-carboxamide] | < 100 nM | < 100 nM | 100 to 300 nM | < 100 nM | – | – | – | – | –
19 | COc1cc2nccc(Oc3ccc(NC(=O)c4c(C)c(C(C)=O)c(C)n(-c5ccc(F)cc5)c4=O)cc3F)c2nc1OC [Compound 321, 5-Acetyl-N-[4-[(6,7-dimethoxy-1,5-naphthyridin-4-yl)oxy]-3-fluorophenyl]-1-(4-fluorophenyl)-4,6-dimethyl-2-oxopyridine-3-carboxamide] | – | < 100 nM | 100 to 300 nM | < 100 nM | – | – | – | – | < 100 nM
20 | Cc1cnc(C(=O)Nc2ccc(Oc3ccnc4cnc(Cl)cc34)c(F)c2)c(=O)n1-c1ccc(F)cc1 [Compound 498, N-[4-[(6-chloro-1,7-naphthyridin-4-yl)oxy]-3-fluorophenyl]-4-(4-fluorophenyl)-5-methyl-3-oxopyrazine-2-carboxamide] | < 100 nM | < 100 nM | > 300 nM | < 100 nM | – | – | – | – | –
21 | C=C(C)c1cnc2c(Oc3ccc(NC(=O)c4nn(CC)c(C)c(-c5ccc(F)cc5)c4=O)cc3F)ccnc2c1 [Compound 475, 1-ethyl-5-(4-fluorophenyl)-N-[3-fluoro-4-[(7-prop-1-en-2-yl-1,5-naphthyridin-4-yl)oxy]phenyl]-6-methyl-4-oxopyridazine-3-carboxamide] | < 100 nM | < 100 nM | < 100 nM | < 100 nM | – | – | – | – | –
